Results: patent publication US20260232682A1, “GSPT1 DEGRADER COMPOUNDS” (Captor Therapeutics S.A., priority 2023, published 2026)

Columns and labels:
[1] = biological target: [CK1α]-[compound]-[CRBN/DDB1] ternary complex (Homo sapiens, UniProt P48729+Q96SW2); assay: AlphaLISA assay for off-target recruitment detection, CK1α; assay type: binding; settings: 1 μM compound; normalized to FPFT-2216; read-out: Normalized ternary complex response, CK1α
Protocol: (§1) The ability of the molecular glue compounds of the invention to mediate the proximity of CRBN with its known neo-substrates (shown in Table 3) was assessed using AlphaLISA to detect the formation of a [neo-substrate]-[compound of formula (I)]-[CRBN/DDB1] ternary complex.
(§2) Two types of protein solution were prepared: • neo-substrate, 40 μg/ml AlphaScreen Donor Beads (Table 3) in PBS (10 mM phosphate buffer, 137 mM NaCL, 2.7 mM KCl, pH 7.4) buffer supplemented with Tween-20 (Table 3) and 1 mM DTT, • 200 nM 6×His-CRBN/DDB1, 40 μg/ml AlphaLISA Anti-6×His Acceptor beads in PBS buffer with Tween-20 (Table 3) and 1 mM DTT.
(§3) The prepared solutions were incubated at room temperature for 30 min and then the solution containing the donor beads was mixed with the solution containing the acceptor beads.
(§4) The tested compounds were dispensed onto a white 384-well AlphaPlate 384 SW. DMSO was backfilled to all wells, resulting in a final DMSO content of 2%. Wells containing only DMSO served as background. Next, 10 μl of solution with donor and acceptor beads was added to the wells.
(§5) The plate was sealed with transparent film and shaken using a VibroTurbulator for 60 sec at room temperature, level 3. The plate was then spun down shortly (10 sec, 1000 rcf, room temperature) and incubated at 25° C. for 30 min.
(§6) The read-out was performed with PerkinElmer Enspire Multimode Plate Reader (method for AlphaLISA 384-well low volume, Filterset: λexc=680 nm, λem=615 nm).
(§7) The results were analyzed as follows: • 1) an average of luminescence for background signal was calculated and used as a negative control; • 2) an average of the maximum measured luminescence for reference compound (Table 3) was calculated and used as an internal positive control; • 3) raw luminescence values were normalized against positive and negative controls; • 4) Normalized responses to reference molecular glue were determined.

[2] = biological target: T1, [SALL4 ZF2]-[compound]-[CRBN/DDB1] ternary complex (Homo sapiens, UniProt Q96SW2+Q9UJQ4); assay: AlphaLISA assay for off-target recruitment detection, SALL4 ZF2; assay type: binding; settings: 1 μM compound; normalized to Lenalidomide; read-out: Normalized ternary complex response, SALL4 ZF2
T1 construct: SALL4 ZF2
Protocol: as §1, §2, §3, §4, §5, §6, §7

[3] = biological target: T2, [IKZF1 ZF2]-[compound]-[CRBN/DDB1] ternary complex (Homo sapiens, UniProt Q13422+Q96SW2); assay: AlphaLISA assay for off-target recruitment detection, IKZF1 ZF2; assay type: binding; settings: 1 μM compound; normalized to Lenalidomide; read-out: Normalized ternary complex response, IKZF1 ZF2
T2 construct: IKZF1 ZF2
Protocol: as §1, §2, §3, §4, §5, §6, §7

[4] = biological target: T3, [IKZF2 ZF2]-[compound]-[CRBN/DDB1] ternary complex (Homo sapiens, UniProt Q96SW2+Q9UKS7); assay: AlphaLISA assay for off-target recruitment detection, IKZF2 ZF2; assay type: binding; settings: 1 μM compound; normalized to Helios modulator; read-out: Normalized ternary complex response, IKZF2 ZF2
T3 construct: IKZF2 ZF2
Protocol: as §1, §2, §3, §4, §5, §6, §7

[5] = biological target: T4, [GSPT1]-[compound of formula (I)]-[CRBN/DDB1] complex (Homo sapiens, UniProt P15170+Q96SW2); assay: HTRF ternary complex assay (GSPT1); assay type: binding; settings: read-out: HTRF ternary complex Average pEC50 by molecule (converted)
Protocol: The effect of the molecular glue compounds of the invention on the formation of a ternary complex composed of [GSPT1]-[compound of formula (I)]-[CRBN/DDB1] was investigated.
Mix solution of proteins and reagents was prepared: • 48 nM GSPT1, 52.8 nM 6×His-CRBN/DDB1, 3 nM of Streptavidin-Eu cryptate ([…]) and 6.67 nM of Anti-6×his-d2 ([…]) was prepared in PPI Europium detection buffer (purchased from Cisbio) with 1 mM DTT.
The tested compounds in dose-response were dispensed onto a white 384-well low volume plate (Greiner, 784075). DMSO was backfilled to all wells, resulting in a final DMSO content of 0.5%. Wells containing only DMSO served as background.
The plate was sealed with transparent film and shaken using a VibroTurbulator for 60 sec at level 3.
The plate was then spun down shortly (10 sec, 1000 rcf) and incubated at 25° C. for 180 min.
The read-out was performed with plate reader (Pherastar, BMG Labtech) in time resolved fluorescence mode. Filter settings: TR 337 665 620.
The results were analyzed as follows: • 1) an average of fluorescence for background signal was calculated and used as a negative control; • 2) raw fluorescence values for tested compounds were normalized against negative controls; • 3) saturation curve was fitted to specific binding with Hill slope model; • 4) EC50 and pEC50 values were determined.

[6] = biological target: T4, [GSPT1]-[compound of formula (I)]-[CRBN/DDB1] complex; assay: AlphaLISA ternary complex formation assay (GSPT1); assay type: binding; settings: 0.5 h; 1 μM compound; normalized to reference compound CC-885; read-out: Normalized AlphaLISA ternary complex average signal at 1 μM molecule
Protocol: The effect of the molecular glue compounds of the invention on the formation of a ternary complex composed of [GSPT1]-[compound of formula (I)]-[CRBN/DDB1] was investigated with two methods: AlphaLISA dose response assay or HTRF ternary complex assay.
Two types of protein solution were prepared: • 200 nM biotinylated GSPT1 (Table 3), 40 μg/ml AlphaScreen Streptavidin-coated Donor Beads in HBS (10 mM HEPES, 150 mM NaCL, pH 7.4) buffer with 0.1% Tween-20 and 1 mM DTT, • 200 nM 6×His-CRBN/DDB1, 40 μg/ml AlphaLISA Anti-6×His Acceptor beads in HBS buffer with 0.1% Tween-20 and 1 mM DTT.
as §3, §4, §5, §6
as §7, with “2)” for “2) an”, “(structure shown in Table 3 below)” for “(Table 3)”, “positive control” for “reference molecular glue”

[7] = biological target: CRBN/DDB1 protein complex (Homo sapiens, UniProt Q96SW2); assay: CRBN displacement TR-FRET assay; settings: Thalidomide-Red tracer, 6×His-CRBN/DDB1; read-out: CRBN binding Ki
Protocol: CRBN/DDB1 protein complex was mixed with Thalidomide-Red and a compound to be tested (the “test compound”). The test solution contained PPI Europium detection buffer, 1 mM DTT, 6.8 nM Thalidomide-Red (the tracer), 5 nM 6×His-CRBN/DDB1 protein, 0.5 nM Anti-6× His-Eu cryptate, 1% DMSO. The test solution was added to a 384-well assay plate.
The plate was spun-down (1 min, 1000 rpm, 22° C.) and then shaken using a VibroTurbulator for 30 sec at room temperature (20-25° C.), with the frequency set to level 10. The assay plate with protein and the tracer was incubated for 180 min at room temperature (20-25° C.) prior to read-out with a plate reader. The read-out was performed with plate reader (Pherastar, BMG Labtech) in time resolved fluorescence mode. Filter settings: TR 337 665 620.
The CRBN displacement TR-FRET experiment was carried out with various concentrations of the test compounds in order to measure Ki values.
The Ki values of competitive inhibitors were calculated using the equation based on the IC50 values of relationship between compound concentration and measured […], the Kd value of the Thalidomide-Red and CRBN/DDB1 complex, and the concentrations of the protein and the tracer in the displacement assay (as described by Cheng and Prusoff, Biochem Pharmacol 1973; 22:3099-3108).

[8] = Chemical stability in MV-4-11 medium; settings: 37° C., concentration 10 μM
Protocol: Next, 500 μL of each solution was transferred to the 96-deep-well plate. Three replicates for each compound were performed. Plate was afterwards incubated at 37° C. with shaking (220 rpm). 50 μL of sample were withdrawn for the each timepoint (0, 1, 3, 6, 24, 48, 72, and 168 hours) and immediately mixed with 50 μL of acetonitrile. Next, samples were centrifuged at 3900 rpm, 10° C. for 20 minutes. 40 μL of supernatant was diluted with 120 μL of acetonitrile containing internal standard (IS) (10 μM), mixed, and analyzed by LC-MS/MS.
Thermo Fisher Scientific Altis+ coupled with a Vanquish system were used for UHPLC-MS/MS analysis. Analytes were separated on a Kinetex XB-C18 2.6 μm, 50×2.1 mm column, using gradient of water with 0.1% (v/v) formic acid (solvent A) and acetonitrile with 0.1% (v/v) formic acid (solvent B): 0.0 min 5% B, 0.5 min 5% B, 1.0 min 70% B, 3.0 min 95% B, 3.5 min 95% B, 3.7 min 5% B, 5 min 5% B. The mobile phase flow rate was set to 0.3 mL/min and the column was kept in 40° C. 1 μL of samples were injected. The MS/MS analysis was performed using SRM mode in positive ionization. Source parameters were set as follow: Ion Source Type H-ESI, Spray Voltage 3800 V, Sheath Gas 50 Arb, Aux Gas 10 Arb, Sweep Gas 1 Arb, Ion Transfer Tube Temp 325° C., Vaporizer Temp 350° C., Collision Gas Pressure 1.5 mTorr, Q1/Q3 Resolution (FWHM) 0.7. Three transitions were monitored for each analyte and for the internal standard:
Quantitation was based on the peak area ratio between the test compound and IS. The amount of compound remaining in the sample was calculated as follow:
The slope of logarithmic curve of percent remaining versus time has been used for calculation of half-life (t_half). First, the elimination constant (k) was calculated using the equation:
Next, half-life (t_half) was calculated using equation:

Hep3B, Kelly, KG-1 = assay: Growth inhibition of cancer cell lines (summary statement); assay type: cell-based; settings: hepatocellular carcinoma (Hep3B), neuroblastoma (Kelly), leukemia (KG-1)

T4 sequence (P15170 whole entry): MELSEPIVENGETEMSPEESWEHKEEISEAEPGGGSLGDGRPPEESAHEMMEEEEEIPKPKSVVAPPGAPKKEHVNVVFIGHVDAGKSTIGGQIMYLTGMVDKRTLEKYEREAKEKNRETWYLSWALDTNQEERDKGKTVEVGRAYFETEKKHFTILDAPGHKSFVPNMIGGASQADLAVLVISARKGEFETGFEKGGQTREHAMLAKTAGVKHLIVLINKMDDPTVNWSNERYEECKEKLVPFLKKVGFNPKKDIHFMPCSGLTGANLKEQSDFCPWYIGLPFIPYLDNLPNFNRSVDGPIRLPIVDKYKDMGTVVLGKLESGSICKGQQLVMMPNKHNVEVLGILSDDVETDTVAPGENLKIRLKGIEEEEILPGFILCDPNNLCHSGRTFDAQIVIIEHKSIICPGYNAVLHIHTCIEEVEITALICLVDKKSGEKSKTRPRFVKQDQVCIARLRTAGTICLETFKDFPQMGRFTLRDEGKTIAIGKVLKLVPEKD
T4 sequence (Q96SW2 whole entry): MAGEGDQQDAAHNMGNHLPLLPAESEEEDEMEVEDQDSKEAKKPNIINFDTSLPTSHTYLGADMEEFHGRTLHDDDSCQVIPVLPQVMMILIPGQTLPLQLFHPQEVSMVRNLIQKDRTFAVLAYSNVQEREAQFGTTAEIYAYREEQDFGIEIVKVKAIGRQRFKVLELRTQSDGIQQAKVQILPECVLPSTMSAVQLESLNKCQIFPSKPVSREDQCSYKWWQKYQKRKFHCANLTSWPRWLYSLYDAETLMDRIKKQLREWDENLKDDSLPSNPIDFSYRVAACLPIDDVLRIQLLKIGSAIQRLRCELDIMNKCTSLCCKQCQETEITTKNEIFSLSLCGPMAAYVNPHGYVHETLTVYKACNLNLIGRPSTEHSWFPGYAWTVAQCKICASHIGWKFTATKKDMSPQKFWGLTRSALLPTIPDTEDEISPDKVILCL
T4 sequence (Q16531 whole entry partner): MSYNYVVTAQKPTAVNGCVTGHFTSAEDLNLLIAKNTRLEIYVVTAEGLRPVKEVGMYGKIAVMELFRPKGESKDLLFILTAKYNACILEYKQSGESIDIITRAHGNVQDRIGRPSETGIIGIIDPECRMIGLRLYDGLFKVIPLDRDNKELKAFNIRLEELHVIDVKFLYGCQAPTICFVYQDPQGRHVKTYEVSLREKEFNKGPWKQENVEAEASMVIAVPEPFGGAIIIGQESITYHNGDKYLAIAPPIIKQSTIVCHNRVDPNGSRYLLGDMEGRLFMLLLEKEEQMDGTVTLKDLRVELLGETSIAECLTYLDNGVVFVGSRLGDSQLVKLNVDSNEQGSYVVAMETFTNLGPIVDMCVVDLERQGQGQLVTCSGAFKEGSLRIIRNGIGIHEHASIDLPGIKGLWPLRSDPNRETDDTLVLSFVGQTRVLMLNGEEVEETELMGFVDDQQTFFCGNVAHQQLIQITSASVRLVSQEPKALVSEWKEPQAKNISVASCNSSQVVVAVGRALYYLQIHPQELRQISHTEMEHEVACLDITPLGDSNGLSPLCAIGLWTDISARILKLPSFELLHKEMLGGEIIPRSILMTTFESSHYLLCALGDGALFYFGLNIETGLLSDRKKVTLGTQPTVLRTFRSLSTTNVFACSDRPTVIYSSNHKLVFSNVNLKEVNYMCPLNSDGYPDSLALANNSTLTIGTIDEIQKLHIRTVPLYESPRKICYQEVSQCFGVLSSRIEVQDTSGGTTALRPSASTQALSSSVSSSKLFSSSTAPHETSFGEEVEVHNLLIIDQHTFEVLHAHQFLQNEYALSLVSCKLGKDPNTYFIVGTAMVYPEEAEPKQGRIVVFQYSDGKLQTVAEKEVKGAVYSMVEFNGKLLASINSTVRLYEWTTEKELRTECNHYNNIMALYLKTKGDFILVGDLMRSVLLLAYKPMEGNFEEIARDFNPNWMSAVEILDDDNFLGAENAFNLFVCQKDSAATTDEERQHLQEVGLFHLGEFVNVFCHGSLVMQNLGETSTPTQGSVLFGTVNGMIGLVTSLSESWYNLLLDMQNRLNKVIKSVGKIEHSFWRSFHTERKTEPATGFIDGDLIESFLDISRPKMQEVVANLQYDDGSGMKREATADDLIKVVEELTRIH
Sequence of [CK1α]-[compound]-[CRBN/DDB1] ternary complex (P48729 whole entry): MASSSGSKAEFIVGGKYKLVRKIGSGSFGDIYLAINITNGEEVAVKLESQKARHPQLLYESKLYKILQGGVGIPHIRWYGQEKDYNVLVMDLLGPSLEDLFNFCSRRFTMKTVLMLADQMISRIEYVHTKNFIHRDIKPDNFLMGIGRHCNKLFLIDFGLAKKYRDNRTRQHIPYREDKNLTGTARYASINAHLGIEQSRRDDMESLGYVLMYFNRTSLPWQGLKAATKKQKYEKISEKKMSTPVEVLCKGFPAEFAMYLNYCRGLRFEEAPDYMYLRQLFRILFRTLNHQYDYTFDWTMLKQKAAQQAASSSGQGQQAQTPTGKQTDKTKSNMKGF
Sequence of [CK1α]-[compound]-[CRBN/DDB1] ternary complex (Q96SW2 whole entry): as the sequence (Q96SW2 whole entry) above
Sequence of [CK1α]-[compound]-[CRBN/DDB1] ternary complex (Q16531 whole entry partner): as the sequence (Q16531 whole entry partner) above
T1 sequence (Q9UJQ4 410-432 limits assumed): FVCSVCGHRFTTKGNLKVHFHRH
T1 sequence (Q96SW2 whole entry): as the sequence (Q96SW2 whole entry) above
T1 sequence (Q16531 whole entry partner): as the sequence (Q16531 whole entry partner) above
Sequence of CRBN/DDB1 protein complex (Q96SW2 whole entry, species assumed): as the sequence (Q96SW2 whole entry) above
Sequence of CRBN/DDB1 protein complex (Q16531 whole entry partner, species assumed): as the sequence (Q16531 whole entry partner) above
T2 sequence (Q13422 145-167 limits assumed): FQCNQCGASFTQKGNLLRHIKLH
T2 sequence (Q96SW2 whole entry): as the sequence (Q96SW2 whole entry) above
T2 sequence (Q16531 whole entry partner): as the sequence (Q16531 whole entry partner) above
T3 sequence (Q9UKS7 140-162 limits assumed): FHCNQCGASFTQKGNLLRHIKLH
T3 sequence (Q96SW2 whole entry): as the sequence (Q96SW2 whole entry) above
T3 sequence (Q16531 whole entry partner): as the sequence (Q16531 whole entry partner) above

SMILES	activation at 1 µM [1] [%]	activation at 1 µM [2] [%]	activation at 1 µM [3] [%]	activation at 1 µM [4] [%]	EC50 [5] [nM]	activation at 1 µM [6] [%]	Ki [7] [nM]	% remaining at 24 hrs [8]	t_half [hours] [8]	inhibition of growth of cancer types (Hep3B, Kelly, KG-1)
O=C1CCC(N2Cc3cc(CNC(=O)C(F)(F)c4ccc(Cl)cc4)ccc3C2=O)C(=O)N1 (centres unmarked) [eragidomide]									D (D<5 hrs)	
Nc1cccc2c1CN(C1CCC(=O)NC1=O)C2=O (centres unmarked) [lenalidomide]								e (e<5%)	D (D<5 hrs)	inactive

More lines, main results first:

activation at 1 µM [1] [%]	activation at 1 µM [2] [%]	activation at 1 µM [3] [%]	activation at 1 µM [4] [%]	EC50 [5] [nM]	activation at 1 µM [6] [%]	Ki [7] [nM]	% remaining at 24 hrs [8]	t_half [hours] [8]	SMILES	inhibition of growth of cancer types (Hep3B, Kelly, KG-1)
< 10	≥ 50	10 to 25	< 10	316 to 3160	10 to 50	500 to 1000			Cc1nc2ccc(COC(=O)NC3CCCCC3)cc2cc1N1CCC(=O)NC1=O [Compound 60, (3-(2,4-dioxotetrahydropyrimidin-1(2H)-yl)-2-methylquinolin-6-yl)methyl cyclohexylcarbamate]	
< 10	< 10	< 10	< 10	> 3160	< 10	> 1000			Cc1ccc(NC(=O)OCc2cc3nc(C)c(C4CCC(=O)NC4=O)cc3cc2C)cc1Cl (centres unmarked) [Compound 68, (3-(2,6-dioxopiperidin-3-yl)-2,6-dimethylquinolin-7-yl)methyl (3-chloro-4-methylphenyl)carbamate]	
							d (5%≤d<10%)	C (5 hrs≤C<10 hrs)	Cc1nc2cccc(N)c2c(=O)n1C1CCC(=O)NC1=O (centres unmarked) [avadomide]	
							e (e<5%)	D (D<5 hrs)	Nc1cccc2c1C(=O)N(C1CCC(=O)NC1=O)C2=O (centres unmarked) [pomalidomide]	inactive
